Reference: patent US8053409B2, “Agent for prophylaxis of reflex sympathetic dystrophy after cerebral apoplexy” (Asahi Kasei Pharma Corporation, priority 2006, dated 2011)

Tests used:
[1] = system: patients with hemiplegia attributed to cerebrovascular disease (stroke); assay: Test of prevention of onset of post-stroke RSD; type: in vivo, human
Source text: Test subjects were 33 patients with hemiplegia attributed to cerebrovascular disease (stroke) at Brunnstrom stage III or lower in either the upper limb or a finger on admission. Patients already developing RSD (shoulder-hand syndrome) on admission and patients with pain in the shoulder joint or swollen paralyzed limbs were excluded from the test. […] On the other hand, 21 test subjects were classified into a rehabilitation alone group (control group) and compared with the EL administration group. Physical therapy and therapeutic exercise, occupational therapy, and the management of the paralyzed limbs were performed thoroughly in all the cases. […] EL administration was initiated 11 to 59 days after an attack of stroke (25.8 days on average) and continued until 5 months after the attack of stroke. The same observation period was applied to the control group. The test subjects were diagnosed as developing RSD (shoulder-hand syndrome) if they had diffuse pain not localized to the shoulder joint, edema involving skin color changes, skin temperature abnormalities, and range of motion limitations, and the practice of their rehabilitation was restricted. These criteria agreed to Veldman's diagnostic criteria or diagnostic criteria, for CRPS-type 1 provided by the International Association for the Study of Pain.
Activities of daily living (ADL) were evaluated on the basis of the Barthel Index (BI) and the range of motion (ROM) of shoulder joint. The movable range of shoulder joint (also referred to as “shoulder ROM”) was regarded as restricted (Shoulder-ROM-restrictions were present.) if either abduction or flexion was restricted in measurement. The test subjects were also examined for sensory impairment, aphasia, and unilateral spatial neglect on admission.
Statistical analysis was conducted with unpaired t-test, Fisher's exact test, or Wilcoxon test, and 5% or lower significance level was regarded as being significant.

[2] = system: patients with hemiplegia attributed to cerebrovascular disease (stroke) who developed RSD (shoulder-hand syndrome); assay: Test of treatment of post-stroke RSD; type: in vivo, human; conditions: therapeutic administration group, at completion of administration
Protocol: EL was administered after the onset of RSD (shoulder-hand syndrome) in the same use and dose as in Example 1 to 11 patients with hemiplegia attributed to cerebrovascular disease (stroke) at Brunnstrom stage III or lower in either the upper limb or a finger on admission, who developed RSD (shoulder-hand syndrome). These patients were classified into a therapeutic administration group. On the other hand, the EL administration group of Example 1 was compared as a control (preventive administration group) with the therapeutic administration group.

[3] = system: RSD triggered and developed by a trauma or surgical invasion; conditions: subjects having no anamnesis of RSD, after a trauma or surgical invasion; cited from earlier work
[4] = EL preventive administration group (12 subjects), 20 units intramuscularly once a week, continued until 5 months after stroke
[5] = preventive administration group, at completion of administration

Compound | Incidence of RSD converted to all patients with hemiplegia attributed to stroke in the facility ([1]; EL administration group, control group approximately 8.7%) | The number of test subjects developing post-stroke RSD: Developed [1, 4] | The number of test subjects developing post-stroke RSD: Not developed [1, 4] | Cases that developed RSD (incidence) ([1]; EL preventive administration group, 1 of the 12 cases, control group 52.4%) [%] | Incidence of RSD when EL administration was initiated within 48 days after stroke ([1]; cases with administration initiated within 48 days after stroke) [%] | Barthel index, Average ± SE [1, 5] | Barthel index, Median [1, 5] | No RSD, the number of persons [1, 5] | Incidence of RSD until discharge from hospital compared with the unadministered patient group ([1]; repetitive administration to hemiplegia patients without RSD on admission) | Barthel index, Average ± SE [2] | Barthel index, Median [2] | No RSD, the number of persons [2] | Preventive effect on the initial onset of RSD [3]
1-butyric acid-7-(L-2-aminobutyric acid)-26-L-aspartic acid-27-L-valine-29-L-alanine-calcitonin [elcatonin] | approximately 1.3% | 1 | 11 | 8.3 | 0 | 60.8 ± 9.3 | 72.5 | 11 | suppressed significantly and remarkably | 31.8 ± 7.8 | 25 | 0 | –
O=C1O[C@H]([C@@H](O)CO)C(O)=C1O [vitamin C] | – | – | – | – | – | – | – | – | – | – | – | – | preventive effect
